Test: Amounts of carbon dioxide absorption in test liquid (physical absorption, pressure-drop method)
Type: physicochemical
Conditions: 30° C.; for Amount of carbon dioxide absorption, not in coexistence of water a: 100% by mass of compound as test liquid; for Amount of carbon dioxide absorption, not in coexistence of water a / Amount of carbon dioxide absorption, in coexistence of water b: calculated via Henry's constant for P 3.0 MPa; for Amount of carbon dioxide absorption, in coexistence of water b: mixture of 90% by mass of compound and 10% by mass of water; for Carbon dioxide absorption ratio b/a: ratio of absorption in coexistence of water to not in coexistence of water, 3 MPa
Description: A 300-mL pressure-resistant container (A) connected to a carbon dioxide cylinder by piping, and a 150-mL pressure-resistant container were prepared, and amounts of carbon dioxide absorption were determined through a procedure of (i) to (iv) shown below. A regulator and a pressure gage were connected between the carbon dioxide cylinder and pressure-resistant container (A), and pressure-resistant container (A) and pressure-resistant container (B) were soaked in a water bath.
(i) The temperature of the water bath was set to 30° C., and pressure-resistant container (B) containing 50 mL of a test liquid was degassed under reduced pressure with a vacuum pump.
(ii) Pressure-resistant container (A) was filled with carbon dioxide depressurized to 0.20 MPa through the regulator, and the pressure at that time was measured. Thereafter, pressure-resistant container (A) and pressure-resistant container (B) were connected together, and the pressure after 1 hour was measured. Assuming that carbon dioxide in an amount corresponding to the reduction of pressure was absorbed in the test liquid, the amount in moles of adsorbed carbon dioxide per unit mass (mol/kg) was calculated.
(iii) The same operation as (ii) was performed at 0.35 MPa, 0.50 MPa, 0.60 MPa, and 0.80 MPa, and the Henry's constant, Hb (MPa·kg/mol), which indicates the pressure dependence of the amount in moles of adsorbed carbon dioxide (mol/kg), was calculated.
(iv) The amount of carbon dioxide absorption per unit mass of the test liquid (g/kg) was calculated from the following expression:
n: molar mass of carbon dioxide=44 (g/mol).
In the calculation, P (MPa) was 3.0 MPa, which is a representative condition for using physical absorption liquid.
For the case that an acidic gas removing agent (100% by mass of compound) was used as a test liquid (not in coexistence of water) and the case that a mixture of 90% by mass of the acidic gas removing agent (compound) and 10% by mass of water was used as a test liquid (in the coexistence of water), the amounts of carbon dioxide absorption in the test liquids were determined.
The carbon dioxide absorption ratio is the ratio (b/a) of the amount of carbon dioxide absorption per unit mass of a mixture of 90% by mass of an acidic gas removing agent and 10% by mass of water, b (g/kg), to the amount of carbon dioxide absorption per unit mass of the acidic gas removing agent, a (g/kg).

Row | Compound | Amount of carbon dioxide absorption, not in coexistence of water a [g/kg] | Amount of carbon dioxide absorption, in coexistence of water b [g/kg] | Carbon dioxide absorption ratio b/a
1 | C=CCOCC(C)OCC(C)OCC(C)OCC(C)OCC(C)OCC(C)OCC(C)OC (stereo not drawn) [B-5] | 129 | 120 | 0.93
2 | COC(C)COC(C)COC(C)COC(C)COC(C)COC(C)COCCOCC(C)C (stereo not drawn) [B-7] | 140 | 139 | 0.99
3 | CCCCOCCOCC(C)OCC(C)OCC(C)OCC(C)OCC(C)OC (stereo not drawn) [B-2] | 157 | 140 | 0.89
4 | COC(C)COC(C)COC(C)COC(C)COC(C)COC(C)COCCOC(C)(C)C (stereo not drawn) [B-4] | 142 | 128 | 0.90
5 | CCCCOCCOCC(C)OCC(C)OCC(C)O (stereo not drawn) [A-2] | 128 | 98 | 0.77
6 | CC(O)COC(C)COC(C)CO (stereo not drawn) [C-2, tripropylene glycol, reference compound] | 92 | 65 | 0.71
7 | CCCCOCCOCCOCC(C)OCC(C)OCC(C)OCC(C)OCC(C)OC (stereo not drawn) [B-3] | 149 | 134 | 0.90
8 | COC(C)COC(C)COC(C)COCC(C)OCC(C)OCC(C)OCC(C)OC (stereo not drawn) [B-6] | 144 | 122 | 0.85
9 | OCCCCOCCCCOCCCCO [C-3, PTMG250, reference compound] | 72 | 56 | 0.78
10 | CCCCOCC(C)OCC(C)OCC(C)OCC(C)O (stereo not drawn) [A-1] | 132 | 112 | 0.85
11 | CCCCOCC(C)OCC(C)OCC(C)OCC(C)OCC(C)OCC(C)OCC(C)OC (stereo not drawn) [B-1] | 134 | 120 | 0.89
12 | CC(O)COC(C)COC(C)COCC(C)OCC(C)OCC(C)OCC(C)O (stereo not drawn) [A-8] | 104 | 79 | 0.76

Source: patent US20250303354A1, “ACIDIC GAS REMOVAL AGENT, ACIDIC GAS REMOVAL METHOD, ACIDIC GAS ABSORPTION DEVICE, AND CLEANING DEVICE” (AGC Inc., priority 2022, published 2025)
